According to patent US10988465B2, “CXCR4 inhibitors and uses thereof” (X4 Pharmaceuticals, Inc., priority 2016, dated 2021):
Several values for one entry are separate records, joined by “and”; a condition that tells them apart may be missing. Equal values may be shown once. Read-outs that look alike come from different tables or passages of the source. Blank lines part the entries; values can stand above or below the compound they belong to.

How the values were obtained:
[1] = 7-day toxicology study in mice (clinical observations, body weight, food consumption, necropsy, hematology); type: in vivo, male C57BL/6 mice; conditions: for WBC (10^9/L), Mean: group mean; for WBC (10^9/L), Mean / WBC (10^9/L): day 8, 24 hours after last dose; for WBC (10^9/L): individual animal
Description: Example 41: 7-Day Toxicology Study in Mice
Blood samples were taken on day 8, 24 hours after last dose.

[2] = MTD, pharmacokinetics and brain penetration after PO administration; type: in vivo, male C57BL/6 mice; conditions: male; for half-life: MTD mouse, read-out: t½ (converted); for AUC(0-t): C57BL/6, mouse
Description: All PO dosing solutions were prepared in 50 mM citrate buffer (pH 4.0).
The blood collection was performed as follows: the animal was restrained manually at the designated time points, approximately 500 μL of blood sample was collected via cardiac puncture vein into EDTA-2K tubes. The whole blood needed to be divided into two parts; one part was placed in the tube containing EDTA-2K for plasma generation and the other was used for the hematology assay, respectively. The blood samples for plasma generation were maintained in wet ice first and centrifuged to obtain plasma (2000 g, 4° C., 5 min) within 15 minutes post sampling. The brain collection was performed as follows: a mid-line incision was made in the animal's scalp and the skin was retracted. Using small bone cutters and rongeurs, the skull overlying the brain was removed. The brain was removed using a spatula and rinsed with cold saline. The brain was placed in screw-top tubes, and then stored at −70° C. until analysis. The CSF collection was performed as follows: a mid line incision was made on the neck. The muscle under the skin was cut to expose the cisterna magna. The cisterna magna was penetrated with the sharp end of one capillary (Burn one end of capillary to make it sharp). The CSF was sucked spontaneously into the capillary.
Plasma sample preparation: An aliquot of 30 μL sample was added with 100 μL MeCN containing 100 ng/mL IS (Dexamethasone). The mixture was vortexed for 10 min and centrifuged at 5800 rpm for 10 min. An aliquot of 40 μL supernatant was added to 40 μL H2O and the mixture was vortexed for 5 min. An aliquot of 2 μL supernatant was injected for LC-MS/MS analysis.
An aliquot of 30 μL brain homogenate (brain:PBS=1:3, w/v) sample was added to 100 μL MeCN containing 100 ng/mL IS (Dexamethasone). The mixture was vortexed for 10 min and centrifuged at 5800 rpm for 10 min. An aliquot of 40 μL supernatant was added to 40 μL H2O and the mixture was vortexed for 5 min. An aliquot of 2 μL supernatant was injected for LC-MS/MS analysis.
An aliquot of 3 μL sample was added to a mixture of 6 μL CSF, 9 μL MeOH/H2O (1/1), 40 μL MeCN containing 200 ng/mL IS (Dexamethasone), and 116 μL H2O. The mixture was vortexed for 5 min. An aliquot of 4 μL was injected for LC-MS/MS analysis.
The sample analysis was performed on UPLC-MS/MS-02 (Triple Quad™ 4000) under the following conditions: positive ion, ESI, MRM detection using dexamethasone as internal standard. HPLC conditions: mobile phase A: H2O-0.1% formic acid, mobile phase B: MeCN-0.1% formic acid on: ACQUITY UPLC HSS T3 (2.1×50 mm, 1.8 μm) at 60° C.

[3] = Mouse brain uptake assay (MBUA), 3 mg/kg IV, 0-24 h, 4 time points; type: in vivo, male CD1 mice
Description: Example 38: Pharmacokinetics and Brain Penetration Experiment to Determine Brain and Plasma Concentrations of Compounds after IV Administration to Male CD1 Mice
The study design (9 animals) consisted of administrating the drug (IV: 3 mg/kg (5 mL/kg) via tail vein injection) and collecting samples at terminal bleeding for plasma and brain at 0.083, 0.5 and 1 h. The IV dosing solution was prepared in 50 mM citrate buffer (pH 4.0) at 0.6 mg/mL. The blood collection was performed as follows: the animal was restrained manually and approximately 150 μL blood/time point was collected into a dipotassium EDTA tube via retro orbital puncture under anesthesia with isoflurane. The blood sample was put on ice and centrifuged to obtain a plasma sample (2000 g, 5 min under 4° C.) within 15 minutes. The brain collection was performed as follows: a mid-line incision was made in the animal's scalp and the skin was retracted. Using small bone cutters and rongeurs, the skull overlying the brain was removed. The brain was removed using a spatula and the brain rinsed with cold saline. The brain was placed in screw-top tubes, and the tubes were stored at −70° C. until analysis.
An aliquot of 30 μL sample was added to 150 μL MeCN containing 50 ng/mL IS (Dexamethasone). The mixture was vortexed for 5 min and centrifuged at 14,000 rpm for 5 min. An aliquot of 5 μL supernatant was injected for LC-MS/MS analysis.
An aliquot of 30 μL brain homogenate (brain:PBS=1:3, w/v) sample was added to 150 μL IS in MeCN (Dexamethasone, 50 ng/mL). The mixture was vortexed for 5 min and centrifuged at 14,000 rpm for 5 min. An aliquot of 5 μL supernatant was injected for LC-MS/MS analysis.
The sample analysis was performed on LCMS/MS-003 (API4000, triple quadruple) under the following conditions: positive ion, ESI, MRM detection using dexamethasone as internal standard. HPLC conditions: mobile phase A: H2O (0.025% formic acid (FA) with 1 mM NH4OAc); mobile phase B: MeOH (0.025% FA with 1 mM NH4OAc) on Waters X-Bridge C18 (2.1×50 mm, 2.5 μm) column at 60° C.
A similar experiment was performed with 4 time points taken from 0-24 h.

SMILES: Cc1cccnc1[C@@H]1CCC[C@H](c2nc3cccc(N4CCN(C)CC4)c3[nH]2)N1C (racemic) [I-3, 2-((2R,6S)-1-methyl-6-(3-methylpyridin-2-yl)piperidin-2-yl)-7-(4-methylpiperazin-1-yl)-1H-benzo[d]imidazole]
- WBC (10^9/L), Mean ([1]; Group 2, PO-10 mg/kg): 4.92 10^9/L
- WBC (10^9/L) ([1]; Group 2, PO-10 mg/kg, 10 mg/kg): 3.67 10^9/L and 6.66 10^9/L and 4.44 10^9/L
- WBC (10^9/L), Mean ([1]; Group 3, PO-30 mg/kg): 8.58 10^9/L
- WBC (10^9/L) ([1]; Group 3, PO-30 mg/kg, 30 mg/kg): 11.6 10^9/L and 6.51 10^9/L and 7.69 10^9/L
- WBC (10^9/L), Mean ([1]; Group 4, PO-100 mg/kg): 18.7 10^9/L
- WBC (10^9/L) ([1]; Group 4, PO-100 mg/kg, 100 mg/kg): 20.4 10^9/L
- necropsy finding ([1]; dose of 30 mg/kg P.O., 7 days): One mouse had an enlarged kidney
- white blood cells ([1]; dose of 100 mg/kg P.O., 7 days): sustained increase
- overt toxicity (clinical observations, body weight, food consumption) ([1]; male C57BL/6 mice, 7 days repeat dosing up to 100 mg/kg/day by oral gavage): no overt signs of toxicity
- body weight ([1]; male C57BL/6 mice, 7 days, up to 100 mg/kg/day by oral gavage): remained stable
- half-life ([2]; C57BL/6, in vivo, single administration, D 1-50 mg/kg): 3.3 h
- AUC(0-t) ([2]; brain, multiple administration, D 5-300 mg/kg, read-out: AUClast (b)): 384000 ng·h/mL
- AUC(0-t) ([2]; brain, single administration, D 1-50 mg/kg, read-out: AUClast (b)): 15500 ng·h/mL
- AUC(0-t) ([2]; plasma, multiple administration, D 5-300 mg/kg, read-out: AUClast (p)): 142000 ng·h/mL
- AUC(0-t) ([2]; plasma, single administration, D 1-50 mg/kg, read-out: AUClast (p)): 7100 ng·h/mL
- half-life ([2]; C57BL/6, plasma, multiple administration, D 5-300 mg/kg): 6.1 h

- Kp ([3]; male, CD1, mouse, brain/plasma, iv, 3 mg/kg): 4.17
- clearance ([3]; male, CD1, plasma, mouse, 3 mg/kg IV, 0-24 h, 4 time points): 26.2 mL/min/kg
- half-life ([3]; male, CD1, plasma, mouse, 3 mg/kg IV, 0-24 h, 4 time points, read-out: t½ (converted)): 3.5 h
- AUC(0-t) ([3]; male, CD1, brain, mouse, 3 mg/kg IV, 0-24 h, read-out: AUClast (b)): 7930 ng·h/mL
- AUC(0-t) ([3]; male, CD1, plasma, mouse, 3 mg/kg IV, 0-24 h, read-out: AUClast (P)): 1900 ng·h/mL
- Kp uu ([3]; male, CD1, unbound brain/unbound plasma, mouse, 3 mg/kg IV, 0-24 h): 1.15
- fraction unbound ([3]; mouse, fraction unbound to brain proteins, read-out: Fu (b) %): 0.035
- fraction unbound ([3]; mouse, fraction unbound to plasma proteins, read-out: Fu (p) %): 0.127
SMILES: CN1CCN(c2cccc3nc([C@H]4CCC[C@@H](c5ncccc5Cl)N4)[nH]c23)CC1 (racemic) [I-122]
